This series in a line: Water solubility of 5-FU. It counts as physicochemical. As to conditions: read-out: measured water solubility. The method, then: A hyaluronic acid formulation that includes 5-FU can be prepared as described. 5-FU is combined with 10 mg hyaluronic acid (1 MDa), 1 ml sterile water. The product is stirred until a uniform gel solution, free of particular polymer or drug is achieved. Alternatively, the HA and water may be combined, stirred and autoclaved to homogenize the solution. After dissolving the polymer, the 5-FU may be added with stirring. NaCl is added (as required for isotonicity), and the pH is adjusted to between 6-8 with NaOH and HCl as required. […] The formulation may be injected to the site of treatment (e.g., into a joint) in a volume appropriate to that site. For example, a knee joint might receive a 2 ml injection, whereas a finger joint or tendon sheath may receive substantially less.

One may read the solubility as the dissolved amount per volume that the medium holds. Turning to `O=c1[nH]cc(F)c(=O)[nH]1` [Formula 5-FU, 5-Fluorouracil], the solubility was found to be 12.9 mg/mL.

The values above are taken from patent publication US20090203632A1, “COMPOSITIONS AND METHODS FOR TREATING CONTRACTURE” (Angiotech International AG, priority 2004, published 2009).
